The values that follow come from ChEMBL document CHEMBL5608177, “Antitumor activity and transcriptome sequencing (RNA-seq) analyses of hepatocellular carcinoma cells in response to exposure triterpene-nucleoside conjugates” (Eur J Med Chem, 2024).

≈ marks a conversion by molar mass, not a printed value. Calls of active or inactive are those of the source. The rule behind the calls is not given here. A value given as a limit tells only on which side of the number the result lay.

One data set concerns HepG2. Put plainly: Antiproliferative activity against human HepG2 cells assessed as inhibition of cell growth incubated for 48 hrs by CCK-8 reagent based spectrophotometric analysis. It is filed as functional. The settings on record: HepG2, 48 h. (In general: Tetrazolium assays rely on reduction of a dye to a coloured formazan, in cell work by metabolically active cells.)
A further data set has as its system SW-620. The data set can be described thus: Antiproliferative activity against human SW620 cells assessed as inhibition of cell growth incubated for 48 hrs by CCK-8 reagent based spectrophotometric analysis. Type of data set: functional. As to conditions: SW-620, 48 h.
Data set [1] deals with SMMC-7721. The data set can be described thus: Induction of apoptosis in human SMMC-7721 cells assessed as viable cells at 5 uM incubated for 24 hrs by Annexin V-FITC and propidium iodide staining based flow cytometric analysis (reference value: 99 %). The settings on record: read-out: Activity. Type of data set: functional. A general note: In flow cytometry, cells or beads pass a laser one at a time.

Data set [2] has as its system SMMC-7721. Put plainly: Induction of apoptosis in human SMMC-7721 cells assessed as early apoptotic cells at 5 uM incubated for 24 hrs by Annexin V-FITC and propidium iodide staining based flow cytometric analysis (reference value: 0.28 %). Type of data set: functional.
Data set [3] relates to SMMC-7721. Put plainly: Induction of apoptosis in human SMMC-7721 cells assessed as necrotic cells at 5 uM incubated for 24 hrs by Annexin V-FITC and propidium iodide staining based flow cytometric analysis (reference value: 0.61 %). Type of data set: functional.
Data set [4] deals with SMMC-7721. The data set can be described thus: Induction of apoptosis in human SMMC-7721 cells assessed as late apoptotic cells at 5 uM incubated for 24 hrs by Annexin V-FITC and propidium iodide staining based flow cytometric analysis (reference value: 0.14 %). Type of data set: functional.
Data set [5] concerns SMMC-7721. The data set can be described thus: Induction of apoptosis in human SMMC-7721 cells assessed as necrotic cells at 20 uM incubated for 24 hrs by Annexin V-FITC and propidium iodide staining based flow cytometric analysis (reference value: 0.61 %). It is filed as functional.
For data set [6], the system named is SMMC-7721. Put plainly: Induction of apoptosis in human SMMC-7721 cells assessed as early apoptotic cells at 15 uM incubated for 24 hrs in presence of zVAD by Annexin V-FITC and propidium iodide staining based flow cytometric analysis (reference value: 0.07 %). It is filed as functional.
Data set [7] has as its system SMMC-7721. Put plainly: Induction of apoptosis in human SMMC-7721 cells assessed as late apoptotic cells at 15 uM incubated for 24 hrs in presence of zVAD by Annexin V-FITC and propidium iodide staining based flow cytometric analysis (reference value: 0.09 %). Type of data set: functional.
For data set [8], the system named is SMMC-7721. Put plainly: Induction of apoptosis in human SMMC-7721 cells at 20 uM incubated for 24 hrs by Annexin V-FITC and propidium iodide staining based flow cytometric analysis relative to control. Type of data set: functional.
Data set [9] deals with SMMC-7721. Put plainly: Induction of autophagy in human SMMC-7721 cells assessed as cell structure destruction at 10 uM incubated for 24 hrs by TEM analysis. Type of data set: functional, cell-based.
Data set [10] can be described thus: Toxicity in Zebrafish embryo assessed as reduction in survival rate at >= 30 uM incubated for 48 hrs by microscopic analysis relative to control. Further details: species or system Danio rerio. The settings on record: zebrafish embryos.
In data set [11] the test system is SMMC-7721. Put plainly: Antitumor activity against human GFP-stained SMMC-7721 cells inoculated in zebrafish larvae assessed as reduction in tumor growth by measuring survival rate at 10 uM incubated for 48 hrs by confocal laser scanning microscopy. Type of data set: functional.
In data set [12] the test system is SMMC-7721. Put plainly: Antitumor activity against human GFP-stained SMMC-7721 cells inoculated in zebrafish larvae assessed as reduction in tumor growth at < 10 uM incubated for 48 hrs by confocal laser scanning microscopy. Type of data set: functional, cell-based.
For data set [13], the system named is SMMC-7721. The data set can be described thus: Antitumor activity against human SMMC-7721 cells xenografted in BALB/c mouse assessed as reduction in tumor weight at 10 mg/kg,ip administrated daily for 3 weeks (reference value: 0.573 +/- 0.137 g). Type of data set: functional. A general note: In xenograft studies the graft and the host belong to different species.

Data set [14] concerns SMMC-7721. Put plainly: Antitumor activity against human SMMC-7721 cells xenografted in BALB/c mouse assessed as inhibition of tumor growth at 10 mg/kg,ip administrated daily for 3 weeks relative to control. It is filed as functional. The arrangement: scale not given: the % may be the effect or the level left.
A short description of data set [15]: Aqueous solubility of the compound in […] by HPLC analysis. It is filed as physicochemical.
The subject of data set [16] is SMMC-7721. Put plainly: Induction of apoptosis in human SMMC-7721 cells assessed as upregulation of Bax expression incubated for 24 hrs by Western blotting analysis. Type of data set: functional, cell-based.
In data set [17] the test system is SMMC-7721. The data set can be described thus: Induction of apoptosis in human SMMC-7721 cells assessed as downregulation of BCL-2 expression at 15 uM incubated for 24 hrs by Western blotting analysis. It is filed as functional, cell-based.
The test system of data set [18] is SMMC-7721. The data set can be described thus: Induction of apoptosis in human SMMC-7721 cells assessed as upregulation of Bax/Bcl-2 ratio incubated for 24 hrs by Western blotting analysis. Type of data set: functional, cell-based.
The subject of data set [19] is SMMC-7721. Put plainly: Induction of apoptosis in human SMMC-7721 cells assessed as upregulation of Bax/Bcl-2 ratio at 20 uM incubated for 24 hrs by Western blotting analysis. It is filed as functional, cell-based.
Data set [20] concerns SMMC-7721. The data set can be described thus: Induction of apoptosis in human SMMC-7721 cells assessed as upregulation of LC3 expression incubated for 24 hrs by Western blotting analysis. Type of data set: functional, cell-based.
The test system of data set [21] is SMMC-7721. Put plainly: Antitumor activity against human GFP-stained SMMC-7721 cells inoculated in zebrafish larvae assessed as reduction in tumor growth at 5 to 20 uM incubated for 48 hrs by confocal laser scanning microscopy. The settings on record: dose 5-20 µM. It is filed as functional, cell-based.
Data set [22] can be described thus: Toxicity in BALB/c mouse xenografted with human SMMC-7721 cells assessed as change in body weight at 10 mg/kg,ip administrated daily for 3 weeks. Type of data set: organism-based. The settings on record: in vivo, 504 h.
Data set [23] concerns SMMC-7721. The data set can be described thus: Antitumor activity against human SMMC-7721 cells xenografted in BALB/c mouse assessed as reduction in tumor growth at 10 mg/kg,ip administrated for 3 weeks. It is filed as functional, organism-based.
For data set [24], the system named is SMMC-7721. The data set can be described thus: Antitumor activity against human SMMC-7721 cells xenografted in BALB/c mouse assessed as reduction in tumor weight at 10 mg/kg,ip administrated for 3 weeks. Type of data set: functional, organism-based.
A short description of data set [25]: Inhibition of PI3K/AKT/mTOR signalling pathway in human SMMC-7721 cells at 10 uM incubated for 24 hrs by transcriptome analysis. It is filed as cell-based.

One may read the IC50 as the point on the concentration scale where inhibition reaches its midpoint. As for `C=C(C)[C@@H]1CC[C@]2(C(=O)OC)CC[C@]3(C)[C@H](CC[C@@H]4[C@@]5(C)C[C@@H](Cc6cn([C@]7(CO)O[C@@H](n8ccc(O)nc8=O)[C@@H](F)[C@@H]7O)nn6)C(=O)C(C)(C)[C@@H]5CC[C@]43C)[C@@H]12`, the IC50 in the data set on HepG2 stood at 23.7 µM; in the data set on SW-620 it was 10.9 µM. Further, in the data set on SMMC-7721 [1], the viability at 5 µM is 99%. Further, the Activity is 0.13% in the data set on SMMC-7721 [2]; 0.69% in the data set on SMMC-7721 [3]; 0.16% in the data set on SMMC-7721 [4]; 19.8% in the data set on SMMC-7721 [5]; 0.03% in the data set on SMMC-7721 [6]; 8.65% in the data set with SMMC-7721 [7]. For the same compound, the Activity in the data set on SMMC-7721 [8] is recorded as 0.42%; in the data set with SMMC-7721 [11] it was 85%. In addition, the result with SMMC-7721 [9] was Active. For the same compound, the survival at 48 h, 30 µM in data set [10] is less than 25%. In the data set on SMMC-7721 [12], the result was inactive.

The solubility is the dissolved amount per volume that the medium holds. Regarding `C=C(C)[C@@H]1CC[C@]2(C(=O)OC)CC[C@]3(C)[C@H](CC[C@@H]4[C@@]5(C)C[C@@H](Cc6cn([C@H]7C[C@H](n8cc(C)c(O)nc8=O)O[C@@H]7CO)nn6)C(=O)C(C)(C)[C@@H]5CC[C@]43C)[C@@H]12`, the IC50 in the data set on HepG2 was found to be 9.55 µM; in the data set with SW-620 it was 4.61 µM. For the same compound, the Activity in the data set with SMMC-7721 [13] is given as 0.275 g; with SMMC-7721 [14], 52%; in the data set with SMMC-7721 [2], 0.24%; in the data set on SMMC-7721 [3], 0.56%; in the data set on SMMC-7721 [4], 0.77%; with SMMC-7721 [5] it was 23%. In addition, the Activity in the data set with SMMC-7721 [6] was 0.04%; with SMMC-7721 [7] it was 2.77%; in the data set with SMMC-7721 [8], 0.54%; in the data set on SMMC-7721 [16], “Dose-Dependent Effect”; in the data set with SMMC-7721 [18], “Dose-Dependent Effect”; in the data set with SMMC-7721 [20] it was “Dose-Dependent Effect”. Besides, in data set [22], the Activity result is “Non-Toxic”. The compound also showed a solubility in data set [15] of 2.56 µM (≈ 1.98 µg/mL). Further, the viability at 5 µM in the data set on SMMC-7721 [1] was found to be 98.4%. The outcome in the data set on SMMC-7721 [9], with SMMC-7721 [17], with SMMC-7721 [19], in the data set on SMMC-7721 [21], in the data set with SMMC-7721 [23] and in the data set with SMMC-7721 [24] was Active. In addition, the inhibition entry in data set [25] was “Active”.
